Reference: patent US9629941B2, “Hydrogel coated scaffold” (CORTICALIS AS, priority 2012, dated 2017)
Where a SMILES comes first, the peptide text is derived from it.

How the values were obtained:
[1] = system: primary human osteoblasts; experiment: Cytotoxicity assay (LDH activity in culture medium), SIM containing scaffolds; assay type: cell-based; settings: for LDH activity compared to alginate-coated scaffolds without SIM: 14-day period
Protocol: Cells from passages 7-9 were seeded on scaffolds at a density of 400.000 cells/ml. […] Scaffolds soaked with culture medium were placed in 48-well culture plates. […] The culture medium was replaced every other day. Collected medium was saved for use in cytotoxicity, alkaline phosphatase (ALP) activity and protein expression assays.

[2] = system: MC3T3-E1 cells; experiment: Cell viability: LDH activity in culture media of cells on alginate hydrogels; assay type: cell-based, mouse; settings: 24 h; 50 μg/ml in 2% alginate hydrogel
Protocol: (§1) The mouse osteoblastic cell line MC3T3-E1 (DSMZ, Braunschweig, Germany) was maintained as previously described (Tiainen H et al., 2011). Before seeding, 24-well culture plates containing crosslinked alginate hydrogels were washed with 750 μl of culture media to remove the excess of CaCl2. After evaluation of the efficiency of cell adhesion on 2% alginate gel using different cell densities, for the final experiments, cells were seeded at a density of 100 000 cells/well. Media was refreshed twice a week. Culture media was collected 24 h after seeding to study cell viability. Cells were harvested at days 14 and 21 to analyze gene expression of adhesion and osteogenic-related markers using real-time RT-PCR. Cultures were routinely observed using light microscopy (Leica DMIRB, Leica Microsystems Wetzlar GmbH, Germany).
The LDH activity determined in the culture media after 24 h was taken as an indicator of membrane leakage or cell lysis. The activity of the cytosolic enzyme was estimated as previously described (Rupert M at al., 2011).

[3] = system: MC3T3-E1 cells; experiment: Gene expression of cell adhesion and osteoblast markers by real-time RT-PCR, cells on alginate hydrogels; assay type: cell-based, mouse; settings: 50 μg/ml in 2% alginate hydrogel
Protocol: as §1
Total RNA was isolated using Tripure® (Roche Diagnostics, Mannheim, Germany), according to the manufacturer's protocol. Total RNA was quantified at 260 nm using a Nanodrop spectrophotometer (NanoDrop Technologies, Wilmington, Del., USA).
The same amount of RNA (350 ng) was reverse transcribed to cDNA using high capacity RNA-to-cDNA kit (Applied Biosystems, Foster City, Calif.), according to the protocol of the supplier. Aliquots of each cDNA were frozen (−20° C.) until the PCR reactions were carried out.
Real-time PCR was performed in the Lightcycler 480® (Roche Diagnostics, Mannheim, Germany) using SYBR green detection. Real-time PCR was done for two reference genes (18SrRNA and glyceraldehyde-3-phosphate dehydrogenase (GAPDH)) and ten target genes (integrin alpha 8 (Itga8), integrin beta1 (Itgb1), integrin beta 3 (Itgb3), fibronectin 1 (Fn11), bone morphogenetic protein 2 (Bmp2), collagen type I (Coll-I), bone sialoprotein (Bsp), alkaline phosphatase (Alp), osteocalcin (Oc) and osteopontin (Opn)).
The primer sequences are detailed in Table 2. Reaction conditions and relative quantification have been done as previously described (Tiainen H et al., 2011).

[4] = Peptide 2 release profile from TiO2 scaffolds coated with 2% alginate gel (UV-Vis 206 nm); assay type: physicochemical; settings: P2-alginate-coated TiO2 scaffolds, distilled water, 37° C.
Protocol: TiO2 scaffolds coated with 2% alginate containing peptide 2 (P2-alginate-coated scaffold) were placed into 48-well plates (Nunc GmBh & Co. Kg, Langenselbold, Germany) containing 1 ml distilled water (pH 7.4). In order to mimic cell culture conditions, the samples were agitated on an orbital shaker at 200 rpm (IKA® Schüttler MTS 2, Germany) for 6 h at 37° C. and in humidity conditions (using a distilled water container). Then, samples were maintained at 37° C. in a humidified atmosphere for up to 21 days. At prefixed time points (2d, 5d, 7d, 9d, 12d, 14d, 16d, 19d and 21d), distilled water was collected and fresh distilled water was added into each well. Sample absorbances were analyzed by UV-Vis spectrophotometer (PerkinElmer® Lambda 25 UV/Vis Systems, USA) at a wavelength of 206 nm to determine the amount of peptide released. In parallel, […] scaffolds coated with one layer of 2% alginate gel were used as control to subtract absorbance values obtained from degradation products from alginate.
Relative absorbance units were correlated with the amount of peptide released using a linear standard curve for each time point and the cumulative P2 released was then calculated. The experiment was performed in triplicate.

[5] = Peptide release profile from 2% alginate hydrogel (fluorescence spectroscopy); assay type: physicochemical
Protocol: To study the peptide release profile, P2 was labeled with FITC. The release of peptide contained into the 2% alginate hydrogel (50 μg/ml) was quantified by fluorescence spectroscopy. First, alginate hydrogels were washed with culture media to remove the excess of CaCl2. Then, 750 μl of cell culture media were added onto peptide loaded alginate hydrogel. The samples were incubated at 37° C. and 5% CO2 for 21 days and cell culture media was changed twice a week. At prefixed time points (24 h, 4 d, 7 d, 11 d, 14 d, 18 d and 21 d), supernatants were collected and analyzed by fluorescence spectroscopy (λ ex 490 nm and λ em 525 nm) to determine the amount of peptide released to the media. The amount of peptide released during the washing step was also measured. The experiment was performed three times, and each sample analyzed in triplicate.
Relative fluorescence units were correlated with the amount of peptide released using a linear standard curve for each time point.

[6] = FITC-labeled P2, 50 μg/ml in 2% alginate hydrogel, culture media, 37° C.

Compound	Oc mRNA levels ([3]; 21 days, vs control)	Expression of Opn ([3]; 14 days, vs control)	Fn1 mRNA levels ([3]; 14 days, vs control)	Itgb1 mRNA levels ([3]; 14 days, vs control)	Itgb3 mRNA levels ([3]; 14 days, vs control)	Fn1 mRNA levels ([3]; 21 days)	Itgb3 mRNA levels ([3]; 21 days)	ALP mRNA levels ([3]; 21 days, vs control)	also measured
CCC(C)(C)C(=O)O[C@H]1C[C@@H](C)C=C2C=C[C@H](C)[C@H](CC[C@@H]3C[C@@H](O)CC(=O)O3)[C@H]21 [SIM, simvastatin]									LDH activity compared to alginate-coated scaffolds without SIM ([1]; 10 nM SIM): Neither of the SIM concentrations caused a significant increase; LDH activity compared to alginate-coated scaffolds without SIM ([1]; 10 μM SIM): Neither of the SIM concentrations caused a significant increase; LDH activity, scaffolds with 10 μM SIM compared to scaffolds with 10 nM SIM ([1]; throughout the 14-day period): higher LDH activity
PLVPSSPLVPCCPLVPCCPSPPLPP (Synthetic biomineralizing peptide) [P5, synthetic proline-rich peptide]	increased								toxic effects compared to EMD and to untreated alginate gel [2]: significantly lower toxic effects; Itga8 mRNA expression ([3]; 21 days, vs control alginate hydrogel): increased
PHQPMQPQPPVHPMQPLPPQPPLPP (Synthetic biomineralizing peptide) [P6, synthetic proline-rich peptide]	increased	decreased significantly	decreased significantly	significantly decreased	decreased significantly	no differences were observed	no differences were observed	significantly decreased	Bmp2 relative mRNA levels ([3]; 14 days, sentence ends 'compared to EMD'): increased significantly; ALP mRNA levels ([3]; 14 days, vs control): significantly decreased; Itgb1 mRNA levels ([3]; 21 days, vs EMD): reduced significantly
CC(C)C[C@H](NC(=O)[C@@H]1CCCN1)C(=O)N[C@H](C(=O)N1CCC[C@H]1C(=O)N[C@@H](CO)C(=O)N[C@@H](CCC(N)=O)C(=O)N1CCC[C@H]1C(=O)N[C@@H](CC(C)C)C(=O)N[C@H](C(=O)N1CCC[C@H]1C(=O)N[C@@H](CO)C(=O)N[C@@H](CCC(N)=O)C(=O)N1CCC[C@H]1C(=O)N[C@@H](CC(C)C)C(=O)N[C@H](C(=O)N1CCC[C@H]1C(=O)N[C@@H](CO)C(=O)N[C@@H](CCC(N)=O)C(=O)N1CCC[C@H]1C(=O)N[C@@H](CCC(N)=O)C(=O)N1CCC[C@H]1C(=O)N1CCC[C@H]1C(=O)N[C@@H](CC(C)C)C(=O)N1CCC[C@H]1C(=O)N1CCC[C@H]1C(=O)O)C(C)C)C(C)C)C(C)C [P2] (H-PLVPSQPLVPSQPLVPSQPQPPLPP-OH)		decreased significantly	decreased significantly	significantly decreased	decreased significantly	no differences were observed	no differences were observed	significantly decreased	amount of peptide released after 5 days [4]: 9.4 % of the cumulative amount rel; burst release of the peptide during the first 2 days of incubation [4]: 42.8 % of the cumulative amount of P2 released after 21 days; cell viability compared to EMD [2]: significantly increased; Bmp2 relative mRNA levels ([3]; 21 days, vs EMD): decreased; total peptide theoretically contained in the alginate hydrogel not released after 21 days ([5]; FITC-labeled P2, 50 μg/ml in 2% alginate hydrogel, 37° C.): 5.6%; burst release of the peptide during the first 24 h of incubation [5, 6]: 54.67%; peptide slowly released up to 11 days [5, 6]: 25.8%; loaded peptide released during the washing step ([5]; washing of alginate hydrogels with culture media to remove excess CaCl2): 12.7%
